Test results from article PMC9118553, “In Vivo Bioconcentration of 10 Anionic Surfactants in Rainbow Trout Explained by In Vitro Data on Partitioning and S9 Clearance” (Environmental Science & Technology, 2022).
“And” between values parts separate entries of the source, which are not always exact repeats. Identical values can stand only once. Marks after values point to notes of the source that are not given here.

Experiments:
[1] = cited from earlier work; for log DMW, membrane-water distribution ratio: marked * = measured, used for IVIVE, same values as Table 3; for log DMLW: measurement from Droge
[2] = tested on: rainbow trout; test: In vivo bioconcentration experiment with a mixture of anionic surfactants, flow-through aquaria, 10 °C, pH 7.8; details: for Log BCF: determined with measured concentrations in water; for Concentration in fish: individual fish; for diffusion coefficient (D) in the epithelial membrane of the gills: in vivo; for BCF (kinetic): kinetic BCF from measured concentrations in water;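 for Uptake rate constant kU: L kg-1 h-1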
Procedure: The bioconcentration of a mixture of 10 anionic surfactants was measured in rainbow trout in water at pH 7.8. […] The experiment was conducted in flow-through aquaria with juvenile rainbow trout at 10 °C. Ethical approval for the experiments was obtained from Stockholms […] (decision 9967-2017). The fish, fish housing, fish handling, and procedure for introducing the mixture of […] chemicals were very similar to our previous study with cationic surfactants;[5] details are provided in Text S1. The experiment consisted of a 4-day exposure phase and a 7-day depuration phase. […] Water samples were collected and fish were sacrificed according to the schedule in Table S4. The water samples were collected just prior to the daily removal of feces from the aquarium. Triplicate samples were taken at each time point. […] The water/methanol mixture was analyzed using liquid chromatography-mass spectrometry (LC-MS)/MS as described below for fish. At each fish sampling, five fish were sacrificed. Following stunning and severance of the spinal cord, the whole fish were placed in a polyethylene bag, weighed, and immediately frozen at -20 °C. The weight of the individual fish at sacrifice was 24.0 ± 5.6 g. Three of the five fish from each time point were prioritized for analysis based on proximity to the median fish weight. Each fish was […] homogenized with an Ultra-turrax dispersing device. […] This mixture was homogenized in a bullet blender for 5 min and then placed in an ultrasound bath at 45 °C for 15 min. Following centrifugation for 15 min@3200 RCF, the supernatant was decanted and the extraction was repeated. The extracts were combined. For instrumental analysis, 5 μL of the fish extract or 60 μL of the water/methanol mixture (water samples) was separated on an Acquity UPLC BEH C18 column fitted with a BEH C18 pre-column and analyzed on a TSQ Quantiva triple quadrupole mass spectrometer. The mobile phase was methanol (10 mM ammonium acetate) and Milli-Q-filtered water (10 mM ammonium acetate) (see Table S5 for the liquid chromatography program). To avoid detergent blank peaks originating from cleaning mobile phase bottles, the methanol was prepared directly in the solvent bottle as delivered and Milli-Q was tapped into an empty methanol bottle. Furthermore, a guard column was fitted between the mobile phase and the autosampler to prevent background contamination from disturbing the analysis. All analytes were quantified against the BEHP internal standard, as it gave better reproducibility. […] The central goal of the analysis was to estimate kU and kT as well as the BCF (=kU/kT) from measurements of surfactant concentration in fish and water samples collected at different time points of the experiment. For the fish, only those time points were included for which CF(measured) was above the limit of quantitation (LOQ) in all three fish (data below the LOQ will have a positive bias; including them would result in a negative bias in kT). In this analysis, there exist two sources of uncertainty: first, uncertainty in the actual concentration in water CW at the time of sample collection and second, variability in the concentration in fish around the (expected) surfactant concentrations in fish assumed to follow model (1). We therefore set up a model in which we considered uncertainty in both water and fish measurements simultaneously by assuming a parametric model for the surfactant concentration in the water over time (either linear or quadratic) and accounted for the uncertainty in the corresponding parameters of the water model during the estimation of kU and kT. This was done in a joint Bayesian model that we estimated via Hamiltonian Monte Carlo. […]

[3] = determined using nominal concentrations in water
[4] = from measured concentrations in water, Bayesian estimate, 95% credible interval in brackets
[5] = 95% credible interval in brackets
[6] = measured concentrations in water, simpler estimation method (Text S3), 95% confidence intervals in brackets

| BCF [2, 3] | Elimination rate constant kT [2, 3] | Uptake rate constant kU [2, 3] | Log BCF [2] | SMILES | log DMW, membrane-water distribution ratio [1] | Concentration in fish ([2]; elimination phase, 97 h) | Concentration in fish ([2]; elimination phase, 98 h) | Concentration in fish ([2]; elimination phase, 100 h) | Concentration in fish ([2]; elimination phase, 103 h) | Concentration in fish ([2]; elimination phase, 120 h) | Concentration in fish ([2]; elimination phase, 128 h) | Concentration in fish ([2]; elimination phase, 144 h) | Concentration in fish ([2]; elimination phase, 168 h) | Concentration in fish ([2]; elimination phase, 192 h) | Concentration in fish ([2]; elimination phase, 264 h) | Concentration in fish ([2]; exposure phase, 1 h) | Concentration in fish ([2]; exposure phase, 2 h) | Concentration in fish ([2]; exposure phase, 3 h) | Concentration in fish ([2]; exposure phase, 4 h) | Concentration in fish ([2]; exposure phase, 6 h) | also measured |
| --- | --- | --- | --- | --- | --- | --- | --- | --- | --- | --- | --- | --- | --- | --- | --- | --- | --- | --- | --- | --- | --- |
| 31 L kg-1 ww | 0.074 h⁻¹ | 2.29 L/kg/h | 1.53 L kg-1 ww | CCCCCCCCCCCCCOS(=O)(=O)O [C13SO4, tridecylsulfate] | 5.21 | 99 ng g-1 ww and 120 ng g-1 ww and 148 ng g-1 ww | 111 ng g-1 ww and 104 ng g-1 ww and 80 ng g-1 ww | 104 ng g-1 ww and 78 ng g-1 ww and 80 ng g-1 ww | 58 ng g-1 ww and 80 ng g-1 ww and 82 ng g-1 ww | 32 ng g-1 ww and 40 ng g-1 ww and 25 ng g-1 ww | 21 ng g-1 ww (2×) and 29 ng g-1 ww | 14.4 ng g-1 ww and 11.1 ng g-1 ww and 13.5 ng g-1 ww | 12.9 ng g-1 ww and 6.4 ng g-1 ww and 7.3 ng g-1 ww | 4.0 ng g-1 ww and 4.7 ng g-1 ww and 3.9 ng g-1 ww | 3.8 ng g-1 ww and 2.1 ng g-1 ww and 1.7 ng g-1 ww | 34 ng g-1 ww and 28 ng g-1 ww and 54 ng g-1 ww | 40 ng g-1 ww and 42 ng g-1 ww and 27 ng g-1 ww | 61 ng g-1 ww and 67 ng g-1 ww and 60 ng g-1 ww | 88 ng g-1 ww and 108 ng g-1 ww and 187 ng g-1 ww | 139 ng g-1 ww and 132 ng g-1 ww and 97 ng g-1 ww | log DMLW [1]: 5.21 ^e L kg^–1; Concentration in fish ([2]; exposure phase, 24 h): 255 ng g-1 ww (2×) and 188 ng g-1 ww; Concentration in fish ([2]; exposure phase, 48 h): 140 ng g-1 ww and 234 ng g-1 ww and 190 ng g-1 ww; Concentration in fish ([2]; exposure phase, 72 h): 201 ng g-1 ww and 154 ng g-1 ww and 128 ng g-1 ww; Concentration in fish ([2]; exposure phase, 96 h): 175 ng g-1 ww and 150 ng g-1 ww and 275 ng g-1 ww; Elimination rate constant kT [2, 4]: 0.048 (0.043–0.053) h^–1; Uptake rate constant kU [2, 4]: 1.62 (1.38–1.91) L kg^–1 ww h^–1; diffusion coefficient (D) in the epithelial membrane of the gills [2]: 3.9 × 10^–8 m h^–1; BCF (kinetic) [2, 5]: 34 (29–40) L kg^–1 ww; BCF [2, 6]: 31 (16) L kg-1 ww; Elimination rate constant kT [2, 6]: 0.053 (7) h-1; Uptake rate constant kU [2, 6]: 1.64 (15) L kg-1 ww h-1; BCF ([2]; own values): 34 L kg^–1 |
| 3.9 L kg-1 ww | 0.065 h⁻¹ | 0.25 L/kg/h | 0.65 L kg-1 ww | CCCCCCCCCCCCCS(=O)(=O)O [C13SO3, tridecylsulfonate] | 4.46 | 15.7 ng g-1 ww and 14.6 ng g-1 ww and 19.2 ng g-1 ww | 14.6 ng g-1 ww and 12.4 ng g-1 ww and 14.8 ng g-1 ww | 33 ng g-1 ww and 10.3 ng g-1 ww and 12.1 ng g-1 ww | 10.0 ng g-1 ww and 23 ng g-1 ww and 11.1 ng g-1 ww | 6.4 ng g-1 ww and 4.3 ng g-1 ww and 2.9 ng g-1 ww | 2.8 ng g-1 ww and 2.3 ng g-1 ww and 4.9 ng g-1 ww | 1.63 ng g-1 ww and 1.18 ng g-1 ww and 1.59 ng g-1 ww | 0.83 ng g-1 ww and 1.89 ng g-1 ww and 0.64 ng g-1 ww | 0.40 ng g-1 ww and 0.33 ng g-1 ww and 0.60 ng g-1 ww | 0.30 ng g-1 ww and 0.13 ng g-1 ww and 0.02 ng g-1 ww | 15.3 ng g-1 ww and 2.5 ng g-1 ww and 35 ng g-1 ww | 3.2 ng g-1 ww and 3.0 ng g-1 ww and 2.3 ng g-1 ww | 4.7 ng g-1 ww and 5.8 ng g-1 ww and 4.5 ng g-1 ww | 8.1 ng g-1 ww and 54 ng g-1 ww and 202 ng g-1 ww | 10.5 ng g-1 ww and 10.3 ng g-1 ww and 8.5 ng g-1 ww | log DMLW [1]: 4.46 ^e L kg^–1; Concentration in fish ([2]; exposure phase, 24 h): 24 ng g-1 ww and 21 ng g-1 ww and 17.0 ng g-1 ww; Concentration in fish ([2]; exposure phase, 48 h): 19.4 ng g-1 ww and 20 ng g-1 ww and 17.1 ng g-1 ww; Concentration in fish ([2]; exposure phase, 72 h): 30 ng g-1 ww and 16.7 ng g-1 ww and 15.0 ng g-1 ww; Concentration in fish ([2]; exposure phase, 96 h): 22 ng g-1 ww and 19.7 ng g-1 ww and 28 ng g-1 ww; Elimination rate constant kT [2, 4]: 0.057 (0.052–0.062) h^–1; Uptake rate constant kU [2, 4]: 0.25 (0.22–0.29) L kg^–1 ww h^–1; diffusion coefficient (D) in the epithelial membrane of the gills [2]: 3.5 × 10^–8 m h^–1; BCF (kinetic) [2, 5]: 4.5 (4.1–5.0) L kg^–1 ww; BCF [2, 6]: 4.3 (12) L kg-1 ww; Elimination rate constant kT [2, 6]: 0.057 (7) h-1 |
| 0.57 L kg-1 ww | 0.233 h⁻¹ | 0.133 L/kg/h | -0.11 L kg-1 ww | CCCCCCCCCCCOS(=O)(=O)O [C11SO4, undecylsulfate] | 4.16 | 5.9 ng g-1 ww and 5.5 ng g-1 ww and 6.7 ng g-1 ww | 4.6 ng g-1 ww and 4.4 ng g-1 ww and 3.8 ng g-1 ww | 6.6 ng g-1 ww and 3.0 ng g-1 ww and 3.5 ng g-1 ww | 1.5 ng g-1 ww and 2.0 ng g-1 ww and 2.7 ng g-1 ww | 1.06 ng g-1 ww and 0.77 ng g-1 ww and 0.51 ng g-1 ww | 0.66 ng g-1 ww and 0.48 ng g-1 ww and 0.54 ng g-1 ww | 0.53 ng g-1 ww and 0.27 ng g-1 ww and 0.19 ng g-1 ww | 0.59 ng g-1 ww and 0.22 ng g-1 ww and 0.17 ng g-1 ww | 0.08 ng g-1 ww and 0.13 ng g-1 ww and 0.09 ng g-1 ww | 0.84 ng g-1 ww and 0.15 ng g-1 ww (2×) | 3.1 ng g-1 ww and 3.6 ng g-1 ww and 4.1 ng g-1 ww | 5.6 ng g-1 ww and 4.4 ng g-1 ww and 4.1 ng g-1 ww | 7.5 ng g-1 ww and 9.4 ng g-1 ww and 7.6 ng g-1 ww | 10.7 ng g-1 ww and 11.2 ng g-1 ww and 18.0 ng g-1 ww | 15.8 ng g-1 ww and 14.7 ng g-1 ww and 14.1 ng g-1 ww | Concentration in fish ([2]; exposure phase, 24 h): 18.5 ng g-1 ww and 15.1 ng g-1 ww and 10.9 ng g-1 ww; Concentration in fish ([2]; exposure phase, 48 h): 7.4 ng g-1 ww and 12.0 ng g-1 ww and 11.2 ng g-1 ww; Concentration in fish ([2]; exposure phase, 72 h): 12.6 ng g-1 ww and 8.7 ng g-1 ww and 8.2 ng g-1 ww; Concentration in fish ([2]; exposure phase, 96 h): 9.9 ng g-1 ww and 8.7 ng g-1 ww and 14.1 ng g-1 ww; Elimination rate constant kT [2, 4]: 0.178 (0.151–0.206) h^–1; Uptake rate constant kU [2, 4]: 0.136 (0.113–0.163) L kg^–1 ww h^–1; diffusion coefficient (D) in the epithelial membrane of the gills [2]: 3.7 × 10^–8 m h^–1; BCF (kinetic) [2, 5]: 0.77 (0.68–0.87) L kg^–1 ww; BCF [2, 6]: 0.74 (33) L kg-1 ww; Elimination rate constant kT [2, 6]: 0.179 (19) h-1; Uptake rate constant kU [2, 6]: 0.133 (27) L kg-1 ww h-1; BCF ([2]; own values): 0.77 L kg^–1 |
